{
  "source": "paper PMC3150407",
  "about": "“Differential Inhibitor Sensitivity between Human Kinases VRK1 and VRK2” (PLoS ONE, 2011)",
  "key": {"[1]": {"molecular_target": "vaccinia virus B1R kinase (Vaccinia virus, UniProt P16913)", "assay_type": "biochemical", "conditions": "p53 and histone H3 as substrates, ATP 5 µM"}, "GST-VRK1 [2]": {"molecular_target": "T1, GST-VRK1 (Homo sapiens, UniProt Q99986)", "T1 construct": "made in house", "T1 sequence (Q99986 1-396)": "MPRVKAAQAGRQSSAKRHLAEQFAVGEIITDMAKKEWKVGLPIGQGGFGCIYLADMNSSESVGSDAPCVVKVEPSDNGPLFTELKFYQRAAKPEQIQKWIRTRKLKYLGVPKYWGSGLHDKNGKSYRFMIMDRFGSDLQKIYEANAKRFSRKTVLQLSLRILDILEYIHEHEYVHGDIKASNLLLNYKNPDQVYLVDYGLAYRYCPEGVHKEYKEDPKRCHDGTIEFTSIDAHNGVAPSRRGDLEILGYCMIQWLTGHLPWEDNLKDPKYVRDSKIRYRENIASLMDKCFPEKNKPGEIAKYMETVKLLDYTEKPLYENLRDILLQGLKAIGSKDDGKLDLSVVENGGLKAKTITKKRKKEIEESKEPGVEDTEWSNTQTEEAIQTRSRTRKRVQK", "assay": "In vitro kinase assay, GST-VRK1 phosphorylation of histone H3", "assay_type": "biochemical", "conditions": "5 µM ATP; average of three experiments, ± standard deviation; No inhibition is lack of effect at 100 µM"}, "human VRK1": {"molecular_target": "T2, human VRK1 (Homo sapiens, UniProt Q99986)", "T2 construct": "made in house", "T2 sequence (Q99986 1-396)": "T1 sequence (Q99986 1-396)", "assay": "In vitro kinase assay, VRK1 kinase activity (autophosphorylation and H3 phosphorylation)", "assay_type": "biochemical", "conditions": "for Effect on VRK1 kinase activity at 100 µM inhibitor (in words): inhibitor 100 µM, 5 µM ATP, autophosphorylation and H3 phosphorylation"}, "GST-VRK2A [3]": {"molecular_target": "T3, GST-VRK2A (Homo sapiens, UniProt Q86Y07)", "T3 construct": "a full-length protein of 508 aminoacids (known as VRK2 and VRK2A); made in house; host or cells: E. coli BL21", "assay": "In vitro kinase assay, GST-VRK2A autophosphorylation", "assay_type": "biochemical", "conditions": "5 µM ATP, average of three experiments, ± standard deviation, No inhibition is lack of effect at 100 µM"}, "ATM": {"test_system": "ATM", "conditions": "Table S1, known target value; no reference given; read-out: Kinase target (IC50) ATM; cited from earlier work"}, "VRK2A": {"molecular_target": "T4, VRK2A (Homo sapiens, UniProt Q86Y07)", "T4 construct": "a full-length protein of 508 aminoacids (known as VRK2 and VRK2A); made in house; host or cells: E. coli BL21", "assay": "In vitro kinase assay, VRK2A kinase activity (autophosphorylation and H3 phosphorylation)", "assay_type": "biochemical", "conditions": "for Effect on VRK2 (VRK2A) kinase activity at 100 µM inhibitor (in words): inhibitor 100 µM, 5 µM ATP, autophosphorylation and H3 phosphorylation"}, "GST-VRK2A [4]": {"molecular_target": "T3, GST-VRK2A", "assay": "In vitro kinase assay, GST-VRK2A phosphorylation of histone H3", "assay_type": "biochemical", "conditions": "5 µM ATP; average of three experiments, ± standard deviation; No inhibition is lack of effect at 100 µM"}, "GST-VRK1 [5]": {"molecular_target": "T1, GST-VRK1", "assay": "In vitro kinase assay, GST-VRK1 autophosphorylation", "assay_type": "biochemical", "conditions": "5 µM ATP, average of three experiments, ± standard deviation, No inhibition is lack of effect at 100 µM"}, "PKC isoforms": {"test_system": "PKC isoforms", "conditions": "read-out: Reported fifty percent inhibition of PKC isoforms; cited from earlier work"}, "GSK-3β": {"test_system": "GSK-3β", "conditions": "Table S1, known target value; no reference given; read-out: Kinase target (IC50) GSK-3β; cited from earlier work"}},
  "note": "Entries after “also recorded” stand apart in the source; their conditions may differ. Where a name gives a salt, the structure may show the parent alone.",
  "data": [
    {"smiles": "O=c1cc(-c2cccc3c2Sc2ccccc2S3)oc(N2CCOCC2)c1", "note": "[KU55933, 2-(4-Morpholinyl)-6-(1-thianthrenyl)-4H-pyran-4-one]", "values": [
      {"measurement": "Sensitivity of vaccinia virus B1R kinase to inhibitor (in words)", "setting": "[1]", "value": "sensitive"},
      {"measurement": "IC50 (µM) GST-VRK1 H3 phosphorylation", "setting": "GST-VRK1 [2]", "value": "No inhibition"},
      {"measurement": "Effect on VRK1 kinase activity at 100 µM inhibitor (in words)", "setting": "human VRK1", "value": "no noticeable effect"},
      {"measurement": "IC50 (µM) GST-VRK2A Auto-phosphorylation", "setting": "GST-VRK2A [3]", "value": "No inhibition"},
      {"measurement": "IC50", "setting": "ATM", "value": "[…]"},
      {"measurement": "Effect on VRK2 (VRK2A) kinase activity at 100 µM inhibitor (in words)", "setting": "VRK2A", "value": "no noticeable effect"},
      {"measurement": "IC50 (µM) GST-VRK2A H3 phosphorylation", "setting": "GST-VRK2A [4]", "value": "No inhibition"},
      {"measurement": "IC50 (µM) GST-VRK1 Auto- phosphorylation", "setting": "GST-VRK1 [5]", "value": "No inhibition"}
    ]},
    {"smiles": "Cn1cc(C2=C(c3cn(CCCSC(=N)N)c4ccccc34)C(=O)NC2=O)c2ccccc21", "note": "[RO 31–8220, 2-(1-[3-(Amidinothio)propyl]-1H-indol-3-yl)-3-methanosulfonate salt]", "values": [
      {"measurement": "Sensitivity of vaccinia virus B1R kinase to inhibitor (in words)", "setting": "[1]", "value": "sensitive"},
      {"measurement": "IC50", "setting": "GST-VRK1 [2]", "value": "34.4 ± 1.05", "unit": "µM"},
      {"measurement": "IC50", "setting": "GST-VRK2A [3]; read-out: IC50 (µM) GST-VRK2A Auto-phosphorylation", "value": "31.8 ± 1.15", "unit": "µM"},
      {"measurement": "IC50", "setting": "GST-VRK2A [4]", "value": "33.6 ± 1.04", "unit": "µM"},
      {"measurement": "IC50", "setting": "PKC isoforms", "value": "5 to 27", "unit": "nM"},
      {"measurement": "IC50", "setting": "GST-VRK1 [5]; read-out: IC50 (µM) GST-VRK1 Auto- phosphorylation", "value": "11.1 ± 1.16", "unit": "µM"}
    ]},
    {"smiles": "CC[C@H](CO)Nc1nc(NCc2ccccc2)c2ncn(C(C)C)c2n1", "note": "[Roscovitine, 2-(R)-(1-Ethyl-2-hydroxyethylamino)-6-benzylamino-9-isopropylpurine]", "values": [
      {"measurement": "IC50 (µM) GST-VRK1 H3 phosphorylation", "setting": "GST-VRK1 [2]", "value": "No inhibition"},
      {"measurement": "Effect on VRK1 kinase activity at 250 µM inhibitor (in words)", "setting": "human VRK1; inhibitor 250 µM", "value": "some noticeable effect"},
      {"measurement": "IC50 (µM) GST-VRK1 Auto- phosphorylation", "setting": "GST-VRK1 [5]", "value": "No inhibition"}
    ]},
    {"smiles": "C[S+]([O-])c1ccc(-c2nc(-c3ccc(F)cc3)c(-c3ccncc3)[nH]2)cc1", "note": "(stereo not shown) [SB203580, 4-(4-Fluorophenyl)-2-(4-methylsulfinylphenyl)-5-(4-pyridyl)-1H-imidazole]", "values": [
      {"measurement": "IC50 (µM) GST-VRK1 H3 phosphorylation", "setting": "GST-VRK1 [2]", "value": "No inhibition"},
      {"measurement": "Effect on VRK1 kinase activity at 100 µM inhibitor (in words)", "setting": "human VRK1", "value": "None of them was able to induce a significant inhibition"},
      {"measurement": "Effect on VRK2 (VRK2A) kinase activity at 100 µM inhibitor (in words)", "setting": "VRK2A", "value": "None of them was able to induce a significant inhibition"},
      {"measurement": "IC50 (µM) GST-VRK1 Auto- phosphorylation", "setting": "GST-VRK1 [5]", "value": "No inhibition"}
    ]},
    {"smiles": "CN[C@@H]1C[C@H]2O[C@@](C)([C@@H]1OC)n1c3ccccc3c3c4c(c5c6ccccc6n2c5c31)C(=O)NC4", "note": "[Staurosporine, (9S,10R,11R,13R)-2,3,10,11,12,13-Hexahydro-10-methoxy-9-methyl-11-(methylamino)-9,13-epoxy-1H,9H-diindolo[1,2,3-gh:3',2',1'-lm]pyrrolo[3,4-j][1,7]benzodiazonin-1-one]", "values": [
      {"measurement": "Sensitivity of vaccinia virus B1R kinase to inhibitor (in words)", "setting": "[1]", "value": "sensitive"},
      {"measurement": "Inhibition of VRK2A activity, concentration series (in words)", "setting": "VRK2A; Fig. 3D, concentration not given", "value": "not inhibited"}
    ]},
    {"smiles": "Cn1sc(=O)n(Cc2ccccc2)c1=O", "note": "[TDZD-8, 4-benzil-2methyl-1,2,4-thiodiazolidine-3,5-dione]", "values": [
      {"measurement": "IC50 (µM) GST-VRK1 H3 phosphorylation", "setting": "GST-VRK1 [2]", "value": "Inhibition at 7.5 µM"},
      {"measurement": "Effect on VRK1 kinase activity at 5 µM inhibitor (in words)", "setting": "human VRK1; inhibitor 5 µM, autophosphorylation or H3 phosphorylation", "value": "no significant inhibition"},
      {"measurement": "Effect on VRK1 kinase activity at 7.5 µM inhibitor (in words)", "setting": "human VRK1; inhibitor 7.5 µM, autophosphorylation or H3 phosphorylation", "value": "almost completely inhibited"},
      {"measurement": "Effect on VRK1 kinase activity at 100 µM inhibitor (in words)", "setting": "human VRK1", "value": "more sensitive"},
      {"measurement": "IC50 (µM) GST-VRK2A Auto-phosphorylation", "setting": "GST-VRK2A [3]", "value": "No inhibition"},
      {"measurement": "Effect on VRK2A kinase activity at 500 µM inhibitor (in words)", "setting": "VRK2A; inhibitor 500 µM (not shown)", "value": "insensitive"},
      {"measurement": "IC50 (µM) GST-VRK2A H3 phosphorylation", "setting": "GST-VRK2A [4]", "value": "No inhibition"},
      {"measurement": "IC50", "setting": "GSK-3β", "value": 2, "unit": "µM"},
      {"measurement": "IC50 (µM) GST-VRK1 Auto- phosphorylation", "setting": "GST-VRK1 [5]", "value": "Inhibition at 7.5 µM"}
    ]},
    {"smiles": "O=c1nc(NCc2ccccc2)s[nH]1", "note": "[TDZD-20, 5-Benzylamino-3-oxo-2,3-dyhidro-1,2-4-thiadiazole]", "values": [
      {"measurement": "IC50 (µM) GST-VRK1 H3 phosphorylation", "setting": "GST-VRK1 [2]", "value": "No inhibition"},
      {"measurement": "Effect on VRK1 kinase activity at 100 µM inhibitor (in words)", "setting": "human VRK1", "value": "not able to inhibit"},
      {"measurement": "Effect on VRK1 kinase activity at concentrations similar to those of TDZD-8 (in words)", "setting": "human VRK1; similar concentrations (5 to 7.5 µM), Fig. S2B", "value": "no effect"},
      {"measurement": "IC50 (µM) GST-VRK2A Auto-phosphorylation", "setting": "GST-VRK2A [3]", "value": "No inhibition"},
      {"measurement": "Effect on VRK2 (VRK2A) kinase activity at 100 µM inhibitor (in words)", "setting": "VRK2A", "value": "insensitive; also recorded: not able to inhibit"},
      {"measurement": "IC50 (µM) GST-VRK2A H3 phosphorylation", "setting": "GST-VRK2A [4]", "value": "No inhibition"},
      {"measurement": "IC50", "setting": "GSK-3β", "value": 6.5, "unit": "µM"},
      {"measurement": "IC50 (µM) GST-VRK1 Auto- phosphorylation", "setting": "GST-VRK1 [5]", "value": "No inhibition"}
    ]}
  ]
}
